From patent US20250066389A1, “HETEROCYCLIC AMIDES AND METHODS OF USING THE SAME” (Rgenta Therapeutics, Inc., priority 2021, published 2025)

What follows are compounds tested on PMS1 (assay: Mini-Gene Reporter Assay—PMS1 (firefly luciferase mini-gene reporter transiently transfected into HEK293 cells)). Settings: Homo sapiens; at 5 uM; mini-gene firefly luciferase reporter in HEK293 cells; read-out: PMS1 % Effect at 5 uM.
Format: cell-based
Outline: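 Luminescence (RLU) read-out of exon inclusion: compound dilutions, tested in duplicate, act on transiently transfected HEK293 cells carrying a firefly luciferase reporter fused downstream of the PMS1 skipped-exon region. Potency derived by Levenberg-Marquardt curve fitting, with percent effect at 5 μM.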
`CCOc1cn2nc(C)cc2cc1C(=O)Nc1cnc(N2CCC(n3ncc4c3CNC4)CC2)cn1` [Compound 507] showed an activation at 5 µM of less than 50%. `CCOc1cn2nc(C)cc2cc1C(=O)Nc1cnc(NC2CNCC23CCC3)cn1` (stereo not shown) [Compound 509] showed an activation at 5 µM of less than 50%. Work on `CCOc1cn2nc(C)cc2cc1C(=O)Nc1cnc(N2CCOC3(CCCNC3)C2)cn1` (stereo not shown) [Compound 510] yielded an activation at 5 µM of less than 50%. `CCOc1cn2nc(C)cc2cc1C(=O)Nc1cnc(NC2CCN(C(=O)CCCNC)CC2)cn1` [Compound 513] was tested, and the activation at 5 µM was less than 50%. `CCOc1cn2nc(C)cc2cc1C(=O)Nc1cnc(NCC[C@@H]2CCNC2)cn1` [Compound 516] showed an activation at 5 µM of less than 50%. `CCOc1cn2nc(C)cc2cc1C(=O)Nc1cnc(N2CCC(NCC3CC3)CC2)cn1` [Compound 517] was tested, and the activation at 5 µM was greater than 75%. In the case of `CCOc1cn2nc(C)cc2cc1C(=O)Nc1cnc(NC(CNC)Cc2ccccc2)cn1` (stereo not shown) [Compound 518], the activation at 5 µM was less than 50%. Work on `CCOc1cn2nc(C)cc2cc1C(=O)Nc1cnc(N(C)C[C@@H]2CCCCN2)cn1` [Compound 519] yielded an activation at 5 µM greater than 75%. `CCOc1cn2nc(C)cc2cc1C(=O)Nc1cnc(N2CCCC(C)(CN)C2)cn1` (stereo not shown) [Compound 522] showed an activation at 5 µM of less than 50%. Work on `CCOc1cn2nc(C)cc2cc1C(=O)Nc1cnc(N2CCC(COC3CCNC3)CC2)cn1` (stereo not shown) [Compound 523] yielded an activation at 5 µM of less than 50%. For `CCOc1cn2nc(C)cc2cc1C(=O)Nc1cnc(N2CCN(CC3CCCNC3)CC2)cn1` (stereo not shown) [Compound 524], the activation at 5 µM was less than 50%. `CCOc1cn2nc(C)cc2cc1C(=O)Nc1cnc(N2CCCC2CNC)cn1` (stereo not shown) [Compound 525] gave an activation at 5 µM of 50 to 75%. `CCOc1cn2nc(C)cc2cc1C(=O)Nc1cnc(N(C)C[C@@H]2CCCN2)cn1` [Compound 526] gave an activation at 5 µM greater than 75%. `CCOc1cn2nc(C)cc2cc1C(=O)Nc1cnc(N2CCC(CCNC)CC2)cn1` [Compound 527] was tested, and the activation at 5 µM was less than 50%. `CCOc1cn2nc(C)cc2cc1C(=O)Nc1cnc(NCC2(C)CCNC2)cn1` (stereo not shown) [Compound 528] showed an activation at 5 µM of less than 50%. For `CCOc1cn2nc(C)cc2cc1C(=O)Nc1cnc(N2CCOC3(CCNC3)C2)cn1` (stereo not shown) [Compound 529], the activation at 5 µM was 50 to 75%. Compound `CCOc1cn2nc(C)cc2cc1C(=O)Nc1cnc(N2CCC3(CCCN3)CC2)cn1` [Compound 530] has an activation at 5 µM greater than 75%. Compound `CCOc1cn2nc(C)cc2cc1C(=O)Nc1cnc(NCCNCCOC)cn1` [Compound 531] has an activation at 5 µM of less than 50%. Compound `CCOc1cn2nc(C)cc2cc1C(=O)Nc1cnc(NC[C@@H]2CC(F)(F)CN2)cn1` [Compound 532] has an activation at 5 µM of less than 50%. In the case of `CCOc1cn2nc(C)cc2cc1C(=O)Nc1cnc(N2CC3CNCC(C3)C2)cn1` [Compound 533], the activation at 5 µM was less than 50%. With `CCOc1cn2nc(C)cc2cc1C(=O)Nc1cnc(N(C)CC2CCCN2)cn1` (stereo not shown) [Compound 534] the activation at 5 µM was 50 to 75%. In the case of `CCOc1cn2nc(C)cc2cc1C(=O)Nc1cnc(N2CC(N)CC(O)C2)cn1` (stereo not shown) [Compound 535], the activation at 5 µM was greater than 75%. In the case of `CCOc1cn2nc(C)cc2cc1C(=O)Nc1cnc(NCC2(F)CNC2)cn1` [Compound 536], the activation at 5 µM was less than 50%. Compound `CCOc1cn2nc(C)cc2cc1C(=O)Nc1cnc(NC2COC3(CNC3)C2)cn1` (stereo not shown) [Compound 537] has an activation at 5 µM of less than 50%. Work on `CCOc1cn2nc(C)cc2cc1C(=O)Nc1cnc(N(C)CC2CCNC2)cn1` (stereo not shown) [Compound 538] yielded an activation at 5 µM of 50 to 75%. `CCOc1cn2nc(C)cc2cc1C(=O)Nc1cnc(NC[C@@H]2C[C@H](F)CN2)cn1` [Compound 539] gave an activation at 5 µM of less than 50%. `CCCC[C@H]1CN(c2cnc(NC(=O)c3cc4cc(C)nn4cc3OCC)cn2)CCN1` [Compound 540] was tested, and the activation at 5 µM was greater than 75%. `CCOc1cn2nc(C)cc2cc1C(=O)Nc1cnc(N2CC(N3CCNCC3)C2)cn1` [Compound 541] gave an activation at 5 µM of less than 50%. Work on `CCOc1cn2nc(C)cc2cc1C(=O)Nc1cnc(N2CCC3(CC2)CNCCO3)cn1` [Compound 542] yielded an activation at 5 µM of less than 50%. In the case of `CCOc1cn2nc(C)cc2cc1C(=O)Nc1cnc(N2CCCC(CCN)C2)cn1` (stereo not shown) [Compound 544], the activation at 5 µM was less than 50%. In the case of `CCOc1cn2nc(C)cc2cc1C(=O)Nc1cnc(N2CCOC3(CCNCC3)C2)cn1` [Compound 545], the activation at 5 µM was less than 50%. `CCOc1cn2nc(C)cc2cc1C(=O)Nc1cnc(N2CCC(NC)C2)cn1` (stereo not shown) [Compound 546] was tested, and the activation at 5 µM was greater than 75%. For `CCOc1cn2nc(C)cc2cc1C(=O)Nc1cnc(N2C[C@H]3CNC[C@H]3C2)cn1` [Compound 547], the activation at 5 µM was greater than 75%. For `CCOc1cn2nc(C)cc2cc1C(=O)Nc1cnc(N2CC3(CCNCC3)C2)cn1` [Compound 548], the activation at 5 µM was greater than 75%. `CCOc1cn2nc(C)cc2cc1C(=O)Nc1cnc(N2C[C@@H]3C[C@H]2CN3)cn1` [Compound 549] gave an activation at 5 µM greater than 75%. With `CCOc1cn2nc(C)cc2cc1C(=O)Nc1cnc(NCC2CCNC2)cn1` (stereo not shown) [Compound 550] the activation at 5 µM was greater than 75%. `CCOc1cn2nc(C)cc2cc1C(=O)Nc1cnc(N(C)C2CCNC2)cn1` (stereo not shown) [Compound 551] was tested, and the activation at 5 µM was greater than 75%. With `CCOc1cn2nc(C)cc2cc1C(=O)Nc1cnc(NCCNC)cn1` [Compound 552] the activation at 5 µM was greater than 75%. With `CCOc1cn2nc(C)cc2cc1C(=O)Nc1cnc(N2CCC(NC)CC2)cn1` [Compound 553] the activation at 5 µM was greater than 75%. With `CCOc1cn2nc(C)cc2cc1C(=O)Nc1cnc(N[C@H]2CCCNC2)cn1` [Compound 554] the activation at 5 µM was greater than 75%. With `CCOc1cn2nc(C)cc2cc1C(=O)Nc1cnc(NCC2CCNCC2)cn1` [Compound 555] the activation at 5 µM was less than 50%. For `CCOc1cn2nc(C)cc2cc1C(=O)Nc1cnc(N2CCC(N)C2)cn1` (stereo not shown) [Compound 556], the activation at 5 µM was greater than 75%. In the case of `CCOc1cn2nc(C)cc2cc1C(=O)Nc1cnc(N2CCC(N)CC2)cn1` [Compound 557], the activation at 5 µM was greater than 75%. In the case of `CCOc1cn2nc(C)cc2cc1C(=O)Nc1cnc(N(C)C2CCNCC2)cn1` [Compound 558], the activation at 5 µM was greater than 75%. `CCOc1cn2nc(C)cc2cc1C(=O)Nc1cnc(NC2CCNCC2)cn1` [Compound 559] was tested, and the activation at 5 µM was greater than 75%. In the case of `CCOc1cn2nc(C)cc2cc1C(=O)Nc1cnc(N2CCCNCC2)cn1` [Compound 561], the activation at 5 µM was greater than 75%. In the case of `CCOc1cn2nc(C)cc2cc1C(=O)Nc1cnc(NCC2C=CCN2)nc1` (stereo not shown) [Compound 562], the activation at 5 µM was less than 50%. `CCOc1cn2nc(C)cc2cc1C(=O)Nc1cnc(NCCCC2CCCN2)nc1` (stereo not shown) [Compound 563] showed an activation at 5 µM of less than 50%. `CCOc1cn2nc(C)cc2cc1C(=O)Nc1cnc(N2CCC(N)(CC)CC2)nc1` [Compound 564] gave an activation at 5 µM of less than 50%. Compound `CCOc1cn2nc(C)cc2cc1C(=O)Nc1cnc(NCC2CNC(C)C2)nc1` (stereo not shown) [Compound 566] has an activation at 5 µM of less than 50%. `CCOc1cn2nc(C)cc2cc1C(=O)Nc1cnc(NCCC2CC(F)(F)CN2)nc1` (stereo not shown) [Compound 567] showed an activation at 5 µM of less than 50%. Work on `CCOc1cn2nc(C)cc2cc1C(=O)Nc1cnc(N2CCC(N)(c3cccc(F)c3)C2)nc1` (stereo not shown) [Compound 568] yielded an activation at 5 µM of less than 50%. In the case of `CCOc1cn2nc(C)cc2cc1C(=O)Nc1cnc(NCC(N)c2cc(F)cc(Cl)c2)nc1` (stereo not shown) [Compound 569], the activation at 5 µM was less than 50%. Work on `CCOc1cn2nc(C)cc2cc1C(=O)Nc1cnc(NCC(N)c2ccc(F)cc2)nc1` (stereo not shown) [Compound 570] yielded an activation at 5 µM of less than 50%. `CCOc1cn2nc(C)cc2cc1C(=O)Nc1cnc(N2CC(N)C(C)(C)C2)nc1` (stereo not shown) [Compound 571] was tested, and the activation at 5 µM was less than 50%. For `CCOc1cn2nc(C)cc2cc1C(=O)Nc1cnc(N2CCC3(CNCCO3)C2)nc1` (stereo not shown) [Compound 572], the activation at 5 µM was less than 50%. `CCOc1cn2nc(C)cc2cc1C(=O)Nc1cnc(N2CCCC(C)(CN)C2)nc1` (stereo not shown) [Compound 573] gave an activation at 5 µM of less than 50%. Work on `CCOc1cn2nc(C)cc2cc1C(=O)Nc1cnc(N2CCCC2CNC)nc1` (stereo not shown) [Compound 574] yielded an activation at 5 µM of less than 50%.
